Laboratory results as given in patent US6703409B2, “2′-Halo-3′,5′-dialkoxyphen-1′-yl-imino-2-imidazolidine and the use thereof as a drug” (Boehringer Ingelheim Pharma GmbH & Co KG, priority 2002, dated 2004).

Tests used:
[1] = tested on: human urethra; assay: Maximum contraction in the human urethra compared with noradrenaline; details: as percentage of contraction compared with noradrenaline
From the text: (§1) The maximum contraction in the isolated dog femoral artery and the human urethra are given as percentages of contraction compared with noradrenaline.

[2] = molecular target: CYP2D6 (Homo sapiens, UniProt P10635); assay: Metabolism by the enzyme CYP2D6; format: in vitro ADME; details: CYP2D6, after 30 minutes
CYP2D6, sequence (P10635 whole entry, species assumed): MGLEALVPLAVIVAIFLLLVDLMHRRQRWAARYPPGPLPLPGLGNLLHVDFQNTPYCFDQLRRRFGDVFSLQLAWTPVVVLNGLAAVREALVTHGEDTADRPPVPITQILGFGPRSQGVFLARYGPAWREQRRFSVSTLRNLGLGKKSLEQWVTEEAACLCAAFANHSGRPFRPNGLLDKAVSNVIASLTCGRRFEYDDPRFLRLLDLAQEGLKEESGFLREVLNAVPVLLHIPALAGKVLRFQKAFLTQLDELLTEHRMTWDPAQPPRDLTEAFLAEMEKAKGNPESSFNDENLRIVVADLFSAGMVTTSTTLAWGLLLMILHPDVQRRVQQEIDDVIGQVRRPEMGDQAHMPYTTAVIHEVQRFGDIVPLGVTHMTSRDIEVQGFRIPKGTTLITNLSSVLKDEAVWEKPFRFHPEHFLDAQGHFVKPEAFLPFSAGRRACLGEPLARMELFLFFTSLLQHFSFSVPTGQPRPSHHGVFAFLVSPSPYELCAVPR
Protocol: To determine the metabolism the enzyme CYP2D6 was reacted with 2′-Chloro-3′,5′-dimethoxyphen-1′-yl-imino-2-imidazolidine. After 30 minutes 2.4% of the substance had been broken down by the enzyme.

[3] = tested on: isolated dog femoral artery; assay: Maximum contraction in the isolated dog femoral artery compared with noradrenaline; details: as percentage of contraction compared with noradrenaline
From the text: as §1

COc1cc(N=C2NCCN2)c(Cl)c(OC)c1 [2′-chloro-3′,5′-dimethoxyphen-1′-yl-imino-2-imidazolidine]
activity on human urethra [1]: 66.2% | substance broken down by the enzyme [2]: 2.4% | activity in the dog [3]: 65%
